# Laboratory results from US5340788A, “Diphenylsulfone derivatives and heat sensitive recording materials” (Nippon Soda Co., Ltd., priority 1990, dated 1994).
# Tested on: not listed separately
# Experiment: Photostability of developed image (Fademeter, Macbeth Reflection Densitometer)
# Conditions: reflection density, filter #106; after Fademeter exposing for 3 hours
# Source text: (§1) Example 4 (Preparation of Heat Sensitive Recording Paper)
# (§2) A compound in the invention (or a reference compound)
# (§3) Each above mixture was sufficiently homogenized by sand grinder to prepare Liquid A, B or C. One weight part of Liquid A, 2 weight parts of Liquid B and 1 weight part of Liquid C. were mixed to prepare a dispersion liquid to tint. The liquid was coated on white paper by applying Wire Rod No. 12, then dried to manufacture the heat sensitive recording paper.
# (§4) In the preparation of Liquid C in Example 4, instead of the compound in the invention, 4-glycidyloxy-4'-isoprpoxydiphenylsulfone was taken place, the other components were same as Example 4 and the heat sensitive recording paper was similarly prepared.
# (§5) A part of the heat sensitive recording papers which were prepared according to the Example 4 and the Comparative examples were heated from both sides to develop color at 150° C. by dry-heating tester (Kishino Science machinery Co.). Then, after they were placed in Incubator Controlled Humidity and Temperature at 50° C. under 80% humidity and in Fademeter (Type FAL-5, Suga Tester Co.) exposing for 3 hours, the stability of backgrounds, of the color images and anti-photo stability were determined by Macbeth Reflection Densitometer (Type RD-514, Ratten #106).
row,"Photostability of developed image, After exposing",Compound
1,1.14,CC1(COc2ccc(S(=O)(=O)c3ccc(OCc4ccc(Cl)cc4)cc3)cc2)CO1 (stereo not drawn) [(4)]
2,1.16,Cc1ccc(COc2ccc(S(=O)(=O)c3ccc(OCC4(C)CO4)cc3)cc2)cc1 (stereo not drawn) [(6)]
3,1.13,"CC1(COc2ccc(S(=O)(=O)c3ccc(OCc4ccccc4)cc3)cc2)CO1 (stereo not drawn) [compound (1), 4-benzyloxy-4'-(2-methylglycidyloxy)diphenylsulfone]"
4,1.12,"Cc1ccc(COc2ccc(S(=O)(=O)c3ccc(OCC4CO4)cc3)cc2)cc1 (stereo not drawn) [compound (5), 4-(4-methylbenzyloxy)-4'-glycidyloxydiphenylsulfone]"

# Second part, the compound before the results:
row,Compound,"Photostability of developed image, After exposing"
1,O=S(=O)(c1ccc(OCc2ccc(Cl)cc2)cc1)c1ccc(OCC2CO2)cc1 (stereo not drawn) [(2)],1.15
2,CC1(COc2ccc(S(=O)(=O)c3ccc(OCc4ccccc4Cl)cc3)cc2)CO1 (stereo not drawn) [(3)],1.09
3,C=CCOc1ccc(S(=O)(=O)c2ccc(OCC3CO3)cc2)cc1 (stereo not drawn) [(7)],1.12
4,"CC(C)Oc1ccc(S(=O)(=O)c2ccc(OCC3CO3)cc2)cc1 (stereo not drawn) [compound 1, 4-glycidyloxy-4'-isoprpoxydiphenylsulfone, reference compound]",1.00

# Same assay, conditions: reflection density, filter #106; color developed at 150° C.; before Fademeter
row,"Photostability of developed image, Before exposing",Compound
1,1.23,CC1(COc2ccc(S(=O)(=O)c3ccc(OCc4ccc(Cl)cc4)cc3)cc2)CO1 (stereo not drawn) [(4)]
2,1.22,Cc1ccc(COc2ccc(S(=O)(=O)c3ccc(OCC4(C)CO4)cc3)cc2)cc1 (stereo not drawn) [(6)]
3,1.21,"CC1(COc2ccc(S(=O)(=O)c3ccc(OCc4ccccc4)cc3)cc2)CO1 (stereo not drawn) [compound (1), 4-benzyloxy-4'-(2-methylglycidyloxy)diphenylsulfone]"
4,1.20,"Cc1ccc(COc2ccc(S(=O)(=O)c3ccc(OCC4CO4)cc3)cc2)cc1 (stereo not drawn) [compound (5), 4-(4-methylbenzyloxy)-4'-glycidyloxydiphenylsulfone]"

# Second part, the compound before the results:
row,Compound,"Photostability of developed image, Before exposing"
1,O=S(=O)(c1ccc(OCc2ccc(Cl)cc2)cc1)c1ccc(OCC2CO2)cc1 (stereo not drawn) [(2)],1.23
2,CC1(COc2ccc(S(=O)(=O)c3ccc(OCc4ccccc4Cl)cc3)cc2)CO1 (stereo not drawn) [(3)],1.22
3,C=CCOc1ccc(S(=O)(=O)c2ccc(OCC3CO3)cc2)cc1 (stereo not drawn) [(7)],1.21
4,"CC(C)Oc1ccc(S(=O)(=O)c2ccc(OCC3CO3)cc2)cc1 (stereo not drawn) [compound 1, 4-glycidyloxy-4'-isoprpoxydiphenylsulfone, reference compound]",1.19

# Tested on: not listed separately
# Experiment: Deposited materials observed after incubation in Ames test
# Format: physicochemical
# Conditions: both conditions of metabolic activation and inactivation
# Method: (§6) Mutagenic activity of the compound No. 1 in the invention and 4,4'-diglycidyldiphenylsulfone was evaluated by Ames test for using Salmonela strains (TA-100 and TA-1535) and E. coli (WP2uvrA) under conditions of metabolic activation and metabolic inactivation. The metabolic activation system was consisted of supernatant of 9000 G in centrifugation from rat liver homogenate (S9) mixture which was induced by 5,6-benzoflavone or phenobar bital, and a coenzyme. Both test compounds were prepared at concentration of 50 mg/mL by using dimethylformamide. Then, they were successively diluted to prepare lower concentration solutions by the same solvent. The concentration of each test substance is adjusted to be 128, 320, 800, 2000 and 5000 μg/plate. The test mixture of the bacteria, each test substance and sodium phosphate buffer solution (S9 mixture under the metabolic activation condition) was incubated at 37° C. for 20 minutes. After the incubation the mixture was added by soft agar solution containing minimum nutrients, homogeneously inoculated on an agar plate and incubated at 37° C. for 65 hours. […] It was concluded from the results that the compound No 1. was not mutagenic, but 4,4'-diglycidyldiphenylsulfone was mutagen.
row,Compound,concentration above which deposited materials were observed
1,"O=S(=O)(c1ccc(OCC2CO2)cc1)c1ccc(OCC2CO2)cc1 (stereo not drawn) [4,4'-diglycidyloxydiphenylsulfone, reference compound]",320-800 μg/plate
2,"CC1(COc2ccc(S(=O)(=O)c3ccc(OCc4ccccc4)cc3)cc2)CO1 (stereo not drawn) [compound (1), 4-benzyloxy-4'-(2-methylglycidyloxy)diphenylsulfone]",> 800 μg/plate

# Tested on: Salmonela strains (TA-100 and TA-1535) and E. coli (WP2uvrA)
# Experiment: Mutagenic activity, Ames test
# Format: cell-based
# Conditions: 128-5000 μg/plate; metabolic activation (S9) and inactivation; all strains
# Method: as §6
row,Compound,increase of recovery mutation colony
1,"O=S(=O)(c1ccc(OCC2CO2)cc1)c1ccc(OCC2CO2)cc1 (stereo not drawn) [4,4'-diglycidyloxydiphenylsulfone, reference compound]",increases of recovery mutation colony were in all strains
2,"CC1(COc2ccc(S(=O)(=O)c3ccc(OCc4ccccc4)cc3)cc2)CO1 (stereo not drawn) [compound (1), 4-benzyloxy-4'-(2-methylglycidyloxy)diphenylsulfone]",No increase of recovery mutation colony was observed in any strain

# Same assay, conditions: with and without metabolic activation
row,Compound,mutagenicity (conclusion of Ames test)
1,"O=S(=O)(c1ccc(OCC2CO2)cc1)c1ccc(OCC2CO2)cc1 (stereo not drawn) [4,4'-diglycidyloxydiphenylsulfone, reference compound]",mutagenic

# Same assay, conditions: with and without metabolic activation; listed as 4,4'-diglycidyldiphenylsulfone
row,Compound,mutagenicity (conclusion of Ames test)
1,"O=S(=O)(c1ccc(OCC2CO2)cc1)c1ccc(OCC2CO2)cc1 (stereo not drawn) [4,4'-diglycidyloxydiphenylsulfone, reference compound]",mutagen

# Same assay, conditions: with and without metabolic activation; listed as compound No. 1
row,Compound,mutagenicity (conclusion of Ames test)
1,"CC1(COc2ccc(S(=O)(=O)c3ccc(OCc4ccccc4)cc3)cc2)CO1 (stereo not drawn) [compound (1), 4-benzyloxy-4'-(2-methylglycidyloxy)diphenylsulfone]",not mutagenic

# Tested on: not listed separately
# Experiment: Stability of background to heat and humidity (heat sensitive recording paper, Macbeth Reflection Densitometer)
# Conditions: reflection density, filter #106; after 50° C. under 80% humidity
# Source text: as §1, §2, §3, §4, §5
row,"Stability of Background to heat and humidity, After exposing",Compound
1,0.09,CC1(COc2ccc(S(=O)(=O)c3ccc(OCc4ccc(Cl)cc4)cc3)cc2)CO1 (stereo not drawn) [(4)]
2,0.12,Cc1ccc(COc2ccc(S(=O)(=O)c3ccc(OCC4(C)CO4)cc3)cc2)cc1 (stereo not drawn) [(6)]
3,0.07,"CC1(COc2ccc(S(=O)(=O)c3ccc(OCc4ccccc4)cc3)cc2)CO1 (stereo not drawn) [compound (1), 4-benzyloxy-4'-(2-methylglycidyloxy)diphenylsulfone]"
4,0.10,"Cc1ccc(COc2ccc(S(=O)(=O)c3ccc(OCC4CO4)cc3)cc2)cc1 (stereo not drawn) [compound (5), 4-(4-methylbenzyloxy)-4'-glycidyloxydiphenylsulfone]"

# Further lines, the compound ahead of its results:
row,Compound,"Stability of Background to heat and humidity, After exposing"
1,O=S(=O)(c1ccc(OCc2ccc(Cl)cc2)cc1)c1ccc(OCC2CO2)cc1 (stereo not drawn) [(2)],0.11
2,CC1(COc2ccc(S(=O)(=O)c3ccc(OCc4ccccc4Cl)cc3)cc2)CO1 (stereo not drawn) [(3)],0.10
3,C=CCOc1ccc(S(=O)(=O)c2ccc(OCC3CO3)cc2)cc1 (stereo not drawn) [(7)],0.07
4,"CC(C)Oc1ccc(S(=O)(=O)c2ccc(OCC3CO3)cc2)cc1 (stereo not drawn) [compound 1, 4-glycidyloxy-4'-isoprpoxydiphenylsulfone, reference compound]",0.17

# Same assay, conditions: reflection density, filter #106; before 50° C., 80% humidity
row,"Stability of Background to heat and humidity, Before exposing",Compound
1,0.07,CC1(COc2ccc(S(=O)(=O)c3ccc(OCc4ccc(Cl)cc4)cc3)cc2)CO1 (stereo not drawn) [(4)]
2,0.09,Cc1ccc(COc2ccc(S(=O)(=O)c3ccc(OCC4(C)CO4)cc3)cc2)cc1 (stereo not drawn) [(6)]
3,0.06,"CC1(COc2ccc(S(=O)(=O)c3ccc(OCc4ccccc4)cc3)cc2)CO1 (stereo not drawn) [compound (1), 4-benzyloxy-4'-(2-methylglycidyloxy)diphenylsulfone]"
4,0.08,"Cc1ccc(COc2ccc(S(=O)(=O)c3ccc(OCC4CO4)cc3)cc2)cc1 (stereo not drawn) [compound (5), 4-(4-methylbenzyloxy)-4'-glycidyloxydiphenylsulfone]"

# More lines, now with the values behind:
row,Compound,"Stability of Background to heat and humidity, Before exposing"
1,O=S(=O)(c1ccc(OCc2ccc(Cl)cc2)cc1)c1ccc(OCC2CO2)cc1 (stereo not drawn) [(2)],0.07
2,CC1(COc2ccc(S(=O)(=O)c3ccc(OCc4ccccc4Cl)cc3)cc2)CO1 (stereo not drawn) [(3)],0.08
3,C=CCOc1ccc(S(=O)(=O)c2ccc(OCC3CO3)cc2)cc1 (stereo not drawn) [(7)],0.07
4,"CC(C)Oc1ccc(S(=O)(=O)c2ccc(OCC3CO3)cc2)cc1 (stereo not drawn) [compound 1, 4-glycidyloxy-4'-isoprpoxydiphenylsulfone, reference compound]",0.07
